Assay results: patent US7247633B2, “Pyrimidine compounds and their use” (Biovitrum AB, priority 2000, dated 2007)
Counter-ions that a name gives are not always drawn.

Target: T1, human 5-HT2c receptor (Homo sapiens, UniProt P28335)
T1 construct: expressed in transfected cells
T1 sequence (P28335 33-458): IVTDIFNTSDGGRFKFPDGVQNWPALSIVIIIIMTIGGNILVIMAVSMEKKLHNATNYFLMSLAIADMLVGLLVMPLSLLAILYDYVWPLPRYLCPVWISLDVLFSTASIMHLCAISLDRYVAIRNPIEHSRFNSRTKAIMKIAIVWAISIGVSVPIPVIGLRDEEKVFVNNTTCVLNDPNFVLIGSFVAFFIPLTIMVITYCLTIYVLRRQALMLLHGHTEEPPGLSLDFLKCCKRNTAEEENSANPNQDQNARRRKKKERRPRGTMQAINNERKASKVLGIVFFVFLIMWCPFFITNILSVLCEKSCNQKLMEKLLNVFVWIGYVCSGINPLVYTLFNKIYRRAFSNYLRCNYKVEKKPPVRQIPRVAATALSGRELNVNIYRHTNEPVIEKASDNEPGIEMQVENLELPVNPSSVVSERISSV
Assay: 5-HT2c receptor affinity assay (displacement of 3H-labelled 5-HT, Scintillation Proximity Assay)
Conditions: membranes of HEK293 cells stably expressing human 5-HT2c receptor; 3H-5-HT; non-specific binding 5 μM mianserin
Experimental: The 5-HT2c receptor affinity of compounds in the Examples was determined in competition experiments, where the ability of each compound in serial dilution to displace ^3H-labelled 5-HT, bound to membranes prepared from a transfected HEK293 cell line stably expressing the human 5-HT2c receptor protein, was monitored by Scintillation Proximity Assay technology. Non-specific binding was defined using 5 μM mianserin.

Compound | Ki
CC(Oc1cncc(N2CCNCC2)n1)c1cccc(F)c1 (centres unmarked) [Example 2, 2-[1-(3-Fluorophenyl)ethoxy]-6-(1-piperazinyl)pyrazine] | 0.008 µM
c1cncc(CCOc2cncc(N3CCNCC3)n2)c1 [Example 12, 2-(1-Piperazinyl)-6-[2-(3-pyridinyl)ethoxy]pyrazine] | 0.197 µM
c1coc(-c2cncc(N3CCNCC3)n2)c1 [Example 15, 2-(2-Furyl)-6-(1-piperazinyl)pyrazine] | 0.616 µM
c1cc(OCc2cccs2)nc(N2CCNCC2)c1 [Example 18, 1-[6-(2-Thienylmethoxy)-2-pyridinyl]piperazine] | 0.092 µM
c1ccc(COc2cncc(N3CCNCC3)n2)cc1 [Example 20, 2-(Benzyloxy)-6-(1-piperazinyl)pyrazine] | 0.028 µM
FCCOc1cncc(N2CCNCC2)n1 [Example 23, 2-(2-Fluoroethoxy)-6-(1-piperazinyl)pyrazine] | 0.478 µM
c1ccc(COc2ccnc(N3CCNCC3)n2)cc1 [Example 32, 4-(Benzyloxy)-2-(1-piperazinyl)pyrimidine] | 0.048 µM
c1ccc(CCCCCOc2cncc(OC3CCNCC3)n2)cc1 [Example 48, 2-[(5-Phenylpentyl)oxy]-6-(4-piperidinyloxy)pyrazine] | 0.037 µM

Test system: not given
Assay: not given
Conditions: not given

Compound | melting point
c1cc2c(cc1COc1cncc(N3CCNCC3)n1)OCO2 (as salt: acetate) [Example 3, 2-(1,3-Benzodioxol-5-ylmethoxy)-6-(1-piperazinyl)pyrazine] | 124 to 127 °C
COc1cccc(COc2cncc(N3CCNCC3)n2)c1 (as salt: acetate) [Example 4, 2-[(3-Methoxybenzyl)oxy]-6-(1-piperazinyl)pyrazine] | 111 to 113 °C
Fc1cc(F)cc(COc2cncc(N3CCNCC3)n2)c1 (as salt: acetate) [Example 6, 2-[(3,5-Difluorobenzyl)oxy]-6-(1-piperazinyl)pyrazine] | 70 to 72 °C
c1ccc(-c2ccc(COc3cncc(N4CCNCC4)n3)cc2)cc1 (as salt: acetate) [Example 7, 2-([1,1′-Biphenyl]-4-ylmethoxy)-6-(1-piperazinyl)pyrazine] | 102 to 104 °C
Clc1cccc(CCOc2cncc(N3CCNCC3)n2)c1 (as salt: acetate) [Example 8, 2-[2-(3-Chlorophenyl)ethoxy]-6-(1-piperazinyl)pyrazine] | 118 to 119 °C
c1ccc2c(c1)CCCC2Oc1cncc(N2CCNCC2)n1 (centres unmarked) (as salt: acetate) [Example 9, 6-(1-Piperazinyl)-2-pyrazinyl 1,2,3,4-tetrahydro-1-naphthalenyl ether] | 160 to 162 °C
FC(F)(F)c1ccc(COc2cncc(N3CCNCC3)n2)cc1 (as salt: acetate) [Example 10, 2-(1-Piperazinyl)-6-{[4-(trifluoromethyl)benzyl]oxy}pyrazine] | 84 to 85 °C
c1cncc(COc2cncc(N3CCNCC3)n2)c1 (as salt: acetate) [Example 11, 2-(1-Piperazinyl)-6-(3-pyridinylmethoxy)pyrazine] | 98 to 99 °C
c1cncc(CCOc2cncc(N3CCNCC3)n2)c1 (as salt: acetate) [Example 12, 2-(1-Piperazinyl)-6-[2-(3-pyridinyl)ethoxy]pyrazine] | 90 to 91 °C
COc1ccccc1COc1cncc(N2CCNCC2)n1 (as salt: hydrochloride) [Example 5, 2-[(2-Methoxybenzyl)oxy]-6-(1-piperazinyl)pyrazine] | 171 to 173 °C
c1ccc(CCOc2cncc(N3CCNCC3)n2)cc1 (as salt: maleate) [Example 14, 2-(2-Phenylethoxy)-6-(1-piperazinyl)pyrazine] | 166 to 168 °C
c1ccc(COc2cncc(N3CCNCC3)n2)cc1 (as salt: maleate) [Example 20, 2-(Benzyloxy)-6-(1-piperazinyl)pyrazine] | 155 to 156 °C
c1ccc2c(c1)OCCC2Oc1cncc(N2CCNCC2)n1 (centres unmarked) (as salt: maleate) [Example 26, 2-(3,4-Dihydro-2H-chromen-4-yloxy)-6-(1-piperazinyl)pyrazine] | 179.5 to 182 °C
c1ccc2c(c1)ccn2CCOc1cncc(N2CCNCC2)n1 (as salt: maleate) [Example 28, 2-[2-(1H-Indol-1-yl)ethoxy]-6-(1-piperazinyl)pyrazine] | 160.5 to 163 °C
COc1cc(COc2cncc(N3CCNCC3)n2)cc(OC)c1 (as salt: maleate) [Example 68, 2-[(3,5-Dimethoxybenzyl)oxy]-6-(1-piperazinyl)pyrazine] | 134 to 137 °C
COc1ccc(CCOc2cncc(N3CCNCC3)n2)cc1 (as salt: maleate) [Example 69, 2-[2-(4-Methoxyphenyl)ethoxy]-6-(1-piperazinyl)pyrazine] | 149 to 151 °C
c1ccc2c(CCOc3cncc(N4CCNCC4)n3)c[nH]c2c1 [Example 29, 2-[2-(1H-Indol-3-yl)ethoxy]-6-(1-piperazinyl)pyrazine] | 133 to 135 °C
Fc1ccc(COc2cncc(N3CCNCC3)n2)cc1 [Example 42, 2-[(4-Fluorobenzyl)oxy]-6-(1-piperazinyl)pyrazine] | 183 °C
COc1cccc(CCOc2cncc(OC3CCNCC3)n2)c1 [Example 45, 2-[2-(3-Methoxyphenyl)ethoxy]-6-(4-piperidinyloxy)pyrazine] | 86 to 87 °C

Target: T2, 5-HT2c receptor (Mus musculus, UniProt P34968)
T2 construct: mice that express the normal 5-HT2c receptor; host or cells: mice, in vivo
T2 sequence (P34968 33-459): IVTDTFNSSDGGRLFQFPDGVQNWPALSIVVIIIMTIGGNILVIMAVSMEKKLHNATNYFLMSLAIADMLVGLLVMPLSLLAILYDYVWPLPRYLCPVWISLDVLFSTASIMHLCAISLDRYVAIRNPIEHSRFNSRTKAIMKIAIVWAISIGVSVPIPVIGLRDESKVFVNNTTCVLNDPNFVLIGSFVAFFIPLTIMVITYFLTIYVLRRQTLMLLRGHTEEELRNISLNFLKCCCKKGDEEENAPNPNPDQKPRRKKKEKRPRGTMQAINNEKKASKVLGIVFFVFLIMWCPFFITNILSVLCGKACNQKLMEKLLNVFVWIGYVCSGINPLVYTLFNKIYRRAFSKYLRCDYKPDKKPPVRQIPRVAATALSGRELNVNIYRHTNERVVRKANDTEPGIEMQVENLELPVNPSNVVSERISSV
Assay: not given
Conditions: mice that express the normal 5-HT2c receptor; cited from earlier work

Compound | food intake
Clc1cccc(N2CCNCC2)c1 [mCPP, m-chlorophenylpiperazine] | reduces food intake

Test system: 5-HT2c receptor
Assay: not given
Conditions: mice expressing the mutated inactive form of the 5-HT2c receptor; cited from earlier work

Compound | food intake
Clc1cccc(N2CCNCC2)c1 [mCPP, m-chlorophenylpiperazine] | lacks activity

Test system: not given
Assay: not given
Conditions: obese subjects, after 2 weeks of treatment; cited from earlier work

Compound | body weight
Clc1cccc(N2CCNCC2)c1 [mCPP, m-chlorophenylpiperazine] | slight but sustained reduction in body weight

Test system: not given
Assay: not given
Conditions: controlled studies; cited from earlier work

Compound | weight reduction
CCN[C@@H](C)Cc1cccc(C(F)(F)F)c1 [dexfenfluramine] | exhibited weight reduction
CNCCC(Oc1ccc(C(F)(F)F)cc1)c1ccccc1 (centres unmarked) [fluoxetine] | exhibited weight reduction
